Here are results for three molecules from patent publication US11866455B2, “Gold(III) complex, a conjugate of the gold(III) complex, a pharmaceutical composition comprising the gold(III) complex and uses and a process for preparing the gold(III) complex” (UNIVERSIDAD DE ALMERIA, priority 2018, dated 2024).

In general, MIC refers to the smallest concentration in the dilution series that meets the test's criterion for growth inhibition.

Values after ≈ are worked out from the molar mass of the structure shown. Where two headings read alike, the source gives them in different places.

Data set [1] relates to MRSA methicillin resistant S. aureus. Kind of data set: Antimicrobial activity (MIC) against S. aureus / MRSA. The class given is cell-based. The following applies: Staphylococcus aureus, Cli, Eri, Pen, Lvx.
Data set [2] has the same test system. The data set is described as follows: Antibiofilm activity (MBIC) against MRSA. Type of data set: cell-based. The following applies: Cli, Eri, Pen, Lvx.
The nature of data set [3]: Stability studies by 1H and 31P NMR. The class given is physicochemical. The following applies: for stability towards reducing agent (31P NMR): CD3CN/H2O. How it is done:
A solution of compound 2f in CD3CN (0.25 mL) was mixed with 0.25 mL of saline phosphate buffer (pH 7.4) in D2O and the mixture was monitored at 37° C. over three days through ^1H and ^31P NMR spectroscopy. […] Such observations show a substantial evidence for the stability of complexes 2 under physiological conditions.
Complexes 2 are also stable in the conditions used for the biological activity assays, as evidenced by the ^31P NMR spectra of a solution of compound 2f in CD3CN (0.25 mL) and 0.25 mL of ISOsensitest culture broth prepared in D2O (FIG. 15).
To gain a more complete picture of the stability and the solution behavior of these gold(III) compounds 2, the spectral changes produced by addition of classical reducing agents, i.e. glutathione (GSH) and ascorbic acid (AsAc) were also examined. Thus, solutions of compound 2f in CD3CN (0.25 mL) were mixed with solutions containing equimolar amounts of either GSH or AsAc in 0.25 mL of H2O.

For a further data set, the system named is A. baumannii. The data set is described as follows: MIC against A. baumannii, alone and in combination with colistine. The class given is cell-based.

Take `C[C@H]1COc2c(N3CCN(C)CC3)c(F)cc3c(=O)c(C(=O)O)cn1c23` [Levofloxacin, levofloxacin]: the minimum inhibitory concentration (MIC) in data set [1] (MRSA, strain MRSA 1, resistance profile Cip) was determined as 128 µg/mL (≈ 354 µM); in data set [1] (strain MRSA 2, resistance profile Gen, Cip, read-out: MIC) it was 64 µg/mL (≈ 177 µM). Also, the MBIC in data set [2] (strain MRSA 1, resistance profile Cip) is recorded as more than 256 mg/L; in data set [2] (strain MRSA 2, resistance profile Gen, Cip), 128 mg/L.

On to “[Gold(III) 2-((diisopropylamino)(phenyl)phosphorothioyl)phenyl) (pirrolidin-1-dithiocarbamate)] hexafluorophosphate [Compound 2f]”, for which the “stability in the conditions of the biological activity assays” value in data set [3] (CD3CN / ISOsensitest culture broth in D2O) is “stable”. In addition, the “31P NMR signal of the complex (stability)” value in data set [3] (CD3CN / saline phosphate buffer (pH 7.4) in D2O, 37° C., three days) was “remained unaltered”. The “stability towards reducing agent (31P NMR)” value in data set [3] (equimolar ascorbic acid (AsAc)) and in data set [3] (equimolar glutathione (GSH)) was “maintained its chemical integrity” throughout.

Consider colistine, for which the MIC in the data set on A. baumannii (each antibiotic separately) amounted to 64 µg/mL. In the data set on A. baumannii (gold(III) complex and colistine used in combination), the MIC in combination was determined as 1 µg/mL.
